Structures can show the parent of a compound that is named as a salt.
Assays:
MRSA biofilms = assay: MBEC, MBEC Inoculation Tray (Innovotech), to 10^2 CFU/peg in 24 hours; assay type: cell-based, Staphylococcus aureus
Text: (§1) To determine the MBEC of each polyamine compound, the MBEC Inoculation Tray by Innovotech, formerly known as the Calgary biofilm device, was used. Within this device, biofilms grow on the surface of polystyrene pegs, 96 of which are attached to a lid. These pegs are inserted into a flat bottom 96-well plate. In this instance, the MBEC of a molecule was defined as the concentration of compound (in μg/mL) required to reduce 10^5 or 10^6 CFU/peg (biofilm levels varied by isolate) to 10^2 CFU/peg in a 24-hour period.
(§2) Following the manufacturer's guidelines, biofilms were grown on the surface of each peg by first making a 0.5 McFarland of each isolate. The 0.5 McFarland was diluted 1:100 in CAMHB. Into each well of a flat bottom 96-well plate, 150 μL of broth were pipetted. The plate was shaken at 100 rpm for 24 hours (P. aeruginosa and A. baumannii) or 48 hours (MRSA). The pegs were then placed into a separate flat bottom 96-well plate for 10 seconds with 200 μL of phosphate buffered saline (PBS) in each well to remove nonadherent cells. The lid was then placed into a 96-well plate that contained varying concentrations of antimicrobial with 200 μL per well. The plate was incubated for 24 hours at 37° C. after which time 100 μL of broth were plated on TSA. TSA plates were incubated 24 hours at 37° C. and the number of CFU counted to calculate the CFU/peg. In this instance, the MBEC was defined as the concentration of antimicrobial required to reduce 10^5 or 10^6 CFU/peg to 10^2 CFU/peg in a 24 hour period.
(§3) MBEC data were collected using the MBEC Inoculation Tray by Innovotech. The MBEC was defined in these preliminary results as the concentration of antimicrobial required to reduce 10^5 or 10^6 CFU/peg to 10^2 CFU/peg in a 24-hour period.

A. baumannii biofilms = assay: as above; assay type: cell-based, Acinetobacter baumannii
Text: as §1, §2
To determine the MBEC, the MBEC Inoculation Tray by Innovotech, formerly known as the Calgary biofilm device, is used. Within this device, biofilms grow on the surface of polystyrene pegs, 96 of which are attached to a lid. These pegs are inserted into a flat bottom 96-well plate. In this instance, the MBEC of a molecule is defined as the concentration of compound required to reduce approximately 10^6 CFU/peg to approximately 10^2 CFU/peg in a 24-hour period.
Following the manufacturer's guidelines, biofilms are grown on the surface of each peg by first making a 0.5 McFarland of A. baumannii. The 0.5 McFarland is diluted 1:100 in CAMHB broth. Into each well of a flat bottom 96-well plate, 150 μL of broth is pipetted. The plate is shaken at 100 rpm for 24 hours. The pegs are placed into a separate flat bottom 96-well plate for 10 seconds with 200 μL of phosphate buffered saline (PBS) in each well to remove nonadherent cells. The lid is placed into a 96-well plate that contains varying concentrations of antimicrobial with 200 μL of broth per well. The plate is incubated for 24 hours at 37° C. after which time 100 μL of broth is plated on TSA. TSA plates is incubated 24 hours at 37° C. and the number of CFU counted to calculate the CFU/peg.
as §3

Compound	MBEC μg/mL (μM) MRSA (MRSA biofilms; Table 4)	MBEC μg/mL (μM) MRSA (MRSA biofilms; Table 4, value in parentheses)	MBEC μg/mL (μM) A. baumannii (A. baumannii biofilms; Table 4)	MBEC μg/mL (μM) A. baumannii (A. baumannii biofilms; Table 4, value in parentheses)
NCCCNCCCNCc1ccccc1 [CZ-7, benzylnorspermidine]	>500 µg/mL	(>2,259) μM	>500 µg/mL	(>2,259) μM
CN[C@H](CC(C)C)C(=O)N[C@H]1C(=O)N[C@@H](CC(N)=O)C(=O)N[C@H]2C(=O)N[C@H]3C(=O)N[C@H](C(=O)N[C@H](C(=O)O)c4cc(O)cc(O)c4-c4cc3ccc4O)[C@H](O)c3ccc(c(Cl)c3)Oc3cc2cc(c3O[C@@H]2O[C@H](CO)[C@@H](O)[C@H](O)[C@H]2O[C@H]2C[C@](C)(N)[C@H](O)[C@H](C)O2)Oc2ccc(cc2Cl)[C@H]1O [vancomycin, reference compound]	>500 µg/mL	(>345) μM		
NCCCNCCCNCc1cc(CNCCCNCCCN)cc(-c2ccccc2)c1 [CZ-58, N^1,N^1′-([1,1′-biphenyl]-3,5-diylbis(methylene))bis(N^3-(3-ammoniopropyl)propane-1,3-diaminium) chloride]	30 µg/mL	(68) μM	>50 µg/mL	(>113) μM
Polymyxin B sulfate [reference compound]			50 µg/mL	(36) μM
NCCCNCCCNCc1cccc(CNCCCNCCCN)c1 [CZ-25, N^1,N^1′-(1,3-phenylenebis(methylene))bis(N3-(3-ammoniopropyl)propane-1,3-diaminium) chloride]	25 µg/mL	(69) μM	450 µg/mL	
NCCCNCCCNCc1cc(CNCCCNCCCN)cc(CNCCCNCCCN)c1 [CZ-52, N^1,N^1′,N^1″-(benzene-1,3,5-triyltris(methylene))tris(N^3-(3-aminopropyl)propane-1,3-diamine), hydrochloride salt]	20 µg/mL	(40) μM	>500 µg/mL	

Reference: US10440955B2, “Methods comprising a biocidal polyamine” (Curza Global, LLC, priority 2013, dated 2019)
